Assay results from patent US20050272606A1, “Plant life control composition” (priority 1999, published 2005).

Experiments:
Experiment in all cases: POST trolley belt sprayer test (Example 3)
Details in all cases: 600 g/ha, 14 DAT
SPR (Sprangletop) = assay type: in vivo, Leptochloa dubia
Description: (§1) All POST crops and weeds plants were grown into separate square pots which measured 10×10 cm. The soil used was amended with Redi-Eartho Plug and Seedling Mix in a one to one ratio. Ten to twenty seeds per small seeded species were planted per pot. Five to ten seeds were planted with large seeded species. Seeds were sown 0.5 inches deep. Generally, POST plants were 7 to 21 days old (from planting) when sprayed. Grasses were in the 2-4 leaf stage and broadleaf weeds were in the 1-2 true leaf stage.
(§2) The spray volume was 50 gallons per acre (468 I/Ha). Rates of application (grams per hectare) varied depending on the concentration of chemical within each individual spray solution. Technical samples were dissolved in acetone. Formulations are suspended in water. All applications were made using a trolley belt sprayer. The test plants were placed on the belt inside the spray hood. Then the spray nozzle which is attached to the trolley, moves mechanically over the top of the plants. The spray nozzle delivers a flat fan spray pattern and is a typical nozzle used in herbicide field applications. The belt carries the plants out of the spray hood and into a drying chamber.
(§3) After spray application, the test plants were placed in a vented cabinet until dry, then placed in the greenhouse. […] The trolley sprayer settings were as follows (50 (GPA) Gallons Per Acre or (468 L/Ha): […]

FOX (Foxtail) = assay type: in vivo, Setaria viridis
Description: as §1, §2, §3

NUT (Nutsedge) = assay type: in vivo, Cyperus esculentus
Description: as §1, §2, §3

MG (Morningglory) = assay type: in vivo, Ipomoea hederacea
Description: as §1, §2, §3

VEL (Velvetleaf) = assay type: in vivo, Abutilon theophrasti
Description: as §1, §2, §3

BID (Bidens) = assay type: in vivo, Bidens pilosa
Description: as §1, §2, §3

TEA (Teaweed) = assay type: in vivo, Sida spinosa
Description: as §1, §2, §3

BP (Blue panicum) = assay type: in vivo, Panicum antidotale
Description: as §1, §2, §3

BYG (Barnyardgrass) = assay type: in vivo, Echinochloa crus-galli
Description: as §1, §2, §3

CKL (Cocklebur) = assay type: in vivo, Xanthium pensylvanicum
Description: as §1, §2, §3

COT (Cotton) = assay type: in vivo, Gossypium hirsutum
Description: as §1, §2, §3

NS (Nightshade) = assay type: in vivo, Solanum nigrum
Description: as §1, §2, §3

RI (Rice) = assay type: in vivo, Oryza sativa
Description: as §1, §2, §3

CRB (Crabgrass) = assay type: in vivo, Digitaria sanguinalis
Description: as §1, §2, §3

SOY (Soybean) = assay type: in vivo, Glycine max
Description: as §1, §2, §3

SIG (Signalgrass) = assay type: in vivo, Brachiaria platyphylla
Description: as §1, §2, §3

WHT (Wheat) = assay type: in vivo, Triticum spp.
Description: as §1, §2, §3

[1] = test system: Grassy Weeds (Avg Monocot); assay type: in vivo
Description: as §1, §2, §3

[2] = test system: Broadleaf Weeds (Avg Dicot); assay type: in vivo
Description: as §1, §2, §3

CN (Corn) = assay type: in vivo, Zea mays
Description: as §1, §2, §3

PIG (Pigweed) = assay type: in vivo, Amaranthus retroflexus
Description: as §1, §2, §3

RYE (Ryegrass) = assay type: in vivo, Lolium multiflorum
Description: as §1, §2, §3

SMT (Smartweed) = assay type: in vivo, Polygonum lapathifolium
Description: as §1, §2, §3

## C[n+]1ccc(-c2cc[n+](C)cc2)cc1 [Paraquat]
SPR (Sprangletop)
  % POST Control of Grassy Weeds: 100%
FOX (Foxtail)
  % POST Control of Grassy Weeds: 90%
NUT (Nutsedge)
  % POST Control of Grassy Weeds: 85%
MG (Morningglory)
  % POST Control of Broadleaf Weeds: 100%
VEL (Velvetleaf)
  % POST Control of Broadleaf Weeds: 100%
BID (Bidens)
  % POST Control of Broadleaf Weeds: 100%
TEA (Teaweed)
  % POST Control of Broadleaf Weeds: 85%
BP (Blue panicum)
  % POST Control of Grassy Weeds: 100%
BYG (Barnyardgrass)
  % POST Control of Grassy Weeds: 95%
CKL (Cocklebur)
  % POST Control of Broadleaf Weeds: 100%
COT (Cotton)
  % Crop Injury: 100%
NS (Nightshade)
  % POST Control of Broadleaf Weeds: 100%
RI (Rice)
  % Crop Injury: 100%
CRB (Crabgrass)
  % POST Control of Grassy Weeds: 90%
SOY (Soybean)
  % Crop Injury: 100%
SIG (Signalgrass)
  % POST Control of Grassy Weeds: 85%
WHT (Wheat)
  % Crop Injury: 100%
[1]
  % POST Control of Grassy Weeds, Avg Monocot: 93%
[2]
  % POST Control of Broadleaf Weeds, Avg Dicot: 98%
CN (Corn)
  % Crop Injury: 85%
PIG (Pigweed)
  % POST Control of Broadleaf Weeds: 100%
RYE (Ryegrass)
  % POST Control of Grassy Weeds: 100%
SMT (Smartweed)
  % POST Control of Broadleaf Weeds: 100%
